The record followed here is ChEMBL document CHEMBL5120920, “A Mitochondria-Targeted Phenylbutyric Acid Prodrug Confers Drastically Improved Anticancer Activities” (J Med Chem, 2022).

Calls of active or inactive are those of the source. The calls are words filed in the database; no cut-off is given here.

Assay [1] concerns the target Histone deacetylase (Homo sapiens) (UniProt Q13547+O15379+Q9UBN7+Q92769+Q9UQL6+Q8WUI4+Q9BY41+Q96DB2+P56524+Q9UKV0+Q969S8). As to the kind of experiment: Inhibition of HDAC in human A-375 cells assessed as upregulation of alpha-tubulin acetylation at 5 to 20 uM measured after 24 hrs. In kind it is cell-based. The following applies: dose 5-20 µM.
The test system of assay [2] is A-375. The assay can be described thus: Induction of apoptosis in human A-375 cells assessed as apoptotic cells at 10 uM measured at 72 hrs by Annexin V FITC/PI staining based flow cytometry analysis relative to control. Type of assay: functional.
For assay [3], the system named is A-375. The assay can be described thus: Induction of cell cycle arrest in human A-375 cells assessed as accumulation at S phase at 5 uM incubated for 24 hrs by PI staining based flow cytometry analysis (reference value: 24.01 %). Type of assay: functional. On the technique in general: Flow cytometry measures light scatter and fluorescence of single cells or particles in a stream.

Assay [4] has as its system A-375. The assay can be described thus: Induction of cell cycle arrest in human A-375 cells assessed as accumulation at G2 phase at 2.5 uM incubated for 24 hrs by PI staining based flow cytometry analysis (reference value: 7.92 %). In kind it is functional.
The test system of assay [5] is A-375. The assay can be described thus: Antitumor activity against human A-375 cells xenografted in nude mouse assessed as induction of apoptosis by measuring morphological changes at 40 mg/kg, ip measured once every two days for 14 days by H and E staining based assay. Type of assay: functional, organism-based. The following applies: time 14.0 day.

For `O=C(CCCCCCCCC[P+](c1ccc(C(F)(F)F)cc1)(c1ccc(C(F)(F)F)cc1)c1ccc(C(F)(F)F)cc1)NC(COC(=O)CCCc1ccccc1)(COC(=O)CCCc1ccccc1)COC(=O)CCCc1ccccc1.[Br-]`, in assay [1], the inhibition result is “Active”. Besides, the Activity came out at 77% in assay [2], 15.46% in assay [3] and 8.58% in assay [4]. Moreover, in assay [5], the outcome was Active.
